Data taken from US20260297070A1, “CYCLIC [COMPOUND LEFT OUT] WRN INHIBITORS” (Nimbus Wadjet, Inc., priority 2023, published 2026).

The compounds below were run against T1, human Werner helicase (WRN-BV08, Uniprot Q14191, amino acids 517-1235 with L1074F point mutation) (Homo sapiens, UniProt Q14191, L1074F) (assay: WRN (BV08) ADP-Glo Assay). Conditions: 0.15 nM WRN, 5 μM ATP, 0.1 nM DNA duplex, 15 min preincubation, 60 min at 25° C., pH 7.5, 1% DMSO; read-out: ADP-Glo_hWRN_IC50.
T1 construct: Uniprot Q14191, amino acids 517-1235 with L1074F point mutation; TEV-cleavable 8×His (C, cleaved yes); made in house; host or cells: Sf9 insect cells (baculovirus)
T1 sequence (Q14191 with tags, fused parts or gaps L1074F limits assumed): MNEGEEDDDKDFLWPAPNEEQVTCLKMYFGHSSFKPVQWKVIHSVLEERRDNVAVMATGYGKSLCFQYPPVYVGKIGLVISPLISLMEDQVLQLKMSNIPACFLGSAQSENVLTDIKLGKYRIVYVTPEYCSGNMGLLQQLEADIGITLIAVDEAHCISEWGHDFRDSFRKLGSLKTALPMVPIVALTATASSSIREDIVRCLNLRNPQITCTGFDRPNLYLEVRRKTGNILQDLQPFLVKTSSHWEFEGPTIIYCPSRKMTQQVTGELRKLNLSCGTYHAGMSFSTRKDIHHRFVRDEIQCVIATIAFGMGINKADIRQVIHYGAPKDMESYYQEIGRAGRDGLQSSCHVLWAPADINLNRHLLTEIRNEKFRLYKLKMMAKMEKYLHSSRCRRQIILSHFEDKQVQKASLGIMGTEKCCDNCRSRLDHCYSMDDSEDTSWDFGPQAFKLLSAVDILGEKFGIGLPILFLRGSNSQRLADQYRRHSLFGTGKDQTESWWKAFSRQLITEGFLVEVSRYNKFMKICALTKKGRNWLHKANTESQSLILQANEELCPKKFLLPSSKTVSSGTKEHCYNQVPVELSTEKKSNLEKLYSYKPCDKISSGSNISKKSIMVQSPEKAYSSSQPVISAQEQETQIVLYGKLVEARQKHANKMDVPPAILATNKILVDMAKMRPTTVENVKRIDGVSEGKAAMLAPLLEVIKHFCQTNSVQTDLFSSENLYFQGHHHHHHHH
Type: biochemical
Summary of the method: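 Percent inhibition was normalised to DMSO (max) and 20 μM NSC-617145 (min) controls from ADP-Glo luminescence, and IC50 values came from a four-parameter fit. The reaction ran 60 min at 25 °C with 0.15 nM WRN, 5 μM ATP and 0.1 nM duplex DNA.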

| SMILES | IC50 [µM] |
| --- | --- |
| C#CCCCC(=O)N1CCN(c2ccc(CN(C(=O)Cc3ccc(-n4cccc4)cc3F)C3C=CS(=O)(=O)C3)cc2)CC1 (stereo not drawn) [I-213, N-(1,1-dioxo-2,3-dihydro-1lambda6-thiophen-3-yl)-2-[2-fluoro-4-(1H-pyrrol-1-yl)phenyl]-N-({4-[4-(hex-5-ynoyl)piperazin-1-yl]phenyl}methyl)acetamide] | 0.5 to 5 |
| Cc1cccc(-c2ccc(CC(=O)N(Cc3ccncc3)C3C=CS(=O)(=O)C3)cc2)c1 (stereo not drawn) [I-288, N-(1,1-dioxo-2,3-dihydro-1lambda6-thiophen-3-yl)-2-{3′-methyl-[1,1′-biphenyl]-4-yl}-N-[(pyridin-4-yl)methyl]acetamide] | 10 to 50 |
| O=C([C@H]1CC[C@@H](C(F)(F)F)O1)N(Cc1ccncc1)C1C=CS(=O)(=O)C1 (mixture of isomers) [I-714, rac-(2R,5S)-N-(1,1-dioxo-2,3-dihydro-1lambda6-thiophen-3-yl)-N-[(pyridin-4-yl)methyl]-5-(trifluoromethyl)oxolane-2-carboxamide] | > 50 |
| CS(=O)(=O)c1ccccc1CN(C(=O)Cc1ccc(-n2cccc2)cc1)C1C=CS(=O)(=O)C1 (stereo not drawn) [I-322, N-(1,1-dioxo-2,3-dihydro-1lambda6-thiophen-3-yl)-N-[(2-methanesulfonylphenyl)methyl]-2-[4-(1H-pyrrol-1-yl)phenyl]acetamide] | 10 to 50 |
| O=C(CCCC[C@@H]1SC[C@@H]2NC(=O)N[C@@H]21)NCCOCCOCCOCCOCCC(=O)Nc1ccc(Cn2cc(CCCC(=O)N3CCN(C(=O)c4ccc(CN(C(=O)Cc5ccc(-n6cccc6)cc5F)C5C=CS(=O)(=O)C5)cc4)CC3)nn2)nc1 (stereo partly drawn) [II-3, 1-{5-[(3aS,4S,6aR)-2-oxo-hexahydro-1H-thieno[3,4-d]imidazol-4-yl]pentanamido}-N-{6-[(4-{4-[4-(4-{[N-(1,1-dioxo-2,3-dihydro-1lambda6-thiophen-3-yl)-2-[2-fluoro-4-(1H-pyrrol-1-yl)phenyl]acetamido]methyl}benzoyl)piperazin-1-yl]-4-oxobutyl}-1H-1,2,3-triazol-1-yl)methyl]pyridin-3-yl}-3,6,9,12-tetraoxapentadecan-15-amide] | 10 to 50 |
| O=C(Cc1ccc(-n2cccc2)cc1)N(Cc1ccc(C2CC2)cn1)C1C=CS(=O)(=O)C1 (stereo not drawn) [I-285, N-[(5-cyclopropylpyridin-2-yl)methyl]-N-(1,1-dioxo-2,3-dihydro-1lambda6-thiophen-3-yl)-2-[4-(1H-pyrrol-1-yl)phenyl]acetamide] | 5 to 10 |
| O=C(Cc1ccc(-n2cccc2)cc1)N(Cc1ccc2c(c1)OCO2)C1C=CS(=O)(=O)C1 (stereo not drawn) [I-225, N-[(2H-1,3-benzodioxol-5-yl)methyl]-N-(1,1-dioxo-2,3-dihydro-1lambda6-thiophen-3-yl)-2-[4-(1H-pyrrol-1-yl)phenyl]acetamide] | 5 to 10 |
| Cc1cccn1-c1ccc(CC(=O)N(Cc2ccnc3c2CCO3)C2C=CS(=O)(=O)C2)c(F)c1 (stereo not drawn) [I-179, N-(1,1-dioxo-2,3-dihydro-1lambda6-thiophen-3-yl)-2-[2-fluoro-4-(2-methyl-1H-pyrrol-1-yl)phenyl]-N-({2H,3H-furo[2,3-b]pyridin-4-yl}methyl)acetamide] | 0.5 to 5 |
| O=C(Cc1cc(-c2ccccc2)n[nH]1)N(Cc1ccncc1)C1C=CS(=O)(=O)C1 (stereo not drawn) [I-289, N-(1,1-dioxo-2,3-dihydro-1lambda6-thiophen-3-yl)-2-(3-phenyl-1H-pyrazol-5-yl)-N-[(pyridin-4-yl)methyl]acetamide] | 10 to 50 |
| CS(=O)(=O)N1CCN(C(C(=O)N(Cc2ccncc2)C2C=CS(=O)(=O)C2)c2ccc(-c3ccc(F)cc3)cc2)CC1 (stereo not drawn) [I-548, N-(1,1-dioxo-2,3-dihydro-1lambda6-thiophen-3-yl)-2-{4′-fluoro-[1,1′-biphenyl]-4-yl}-2-(4-methanesulfonylpiperazin-1-yl)-N-[(pyridin-4-yl)methyl]acetamide] | > 50 |
| CN(C)C(=O)c1ccc(CN(C(=O)Cc2ccc(-n3cccc3)cc2)C2C=CS(=O)(=O)C2)cc1 (stereo not drawn) [I-259, 4-{[N-(1,1-dioxo-2,3-dihydro-1lambda6-thiophen-3-yl)-2-[4-(1H-pyrrol-1-yl)phenyl]acetamido]methyl}-N,N-dimethylbenzamide] | 5 to 10 |
| O=C(C1CCc2cc(-n3cccc3)ccc21)N(Cc1ccncc1)C1C=CS(=O)(=O)C1 (stereo not drawn) [I-477, N-(1,1-dioxo-2,3-dihydro-1lambda6-thiophen-3-yl)-N-[(pyridin-4-yl)methyl]-5-(1H-pyrrol-1-yl)-2,3-dihydro-1H-indene-1-carboxamide] | > 50 |
| Cc1cccn1-c1ccc(CC(=O)N(Cc2ccc(C(=O)N(C)Cc3cn(Cc4ccc(NC(=O)CCOCCOCCOCCOCCNC(=O)CCCC[C@@H]5SC[C@@H]6NC(=O)N[C@@H]65)cn4)nn3)cc2)C2C=CS(=O)(=O)C2)c(F)c1 (single isomer, unassigned) [II-1] | 0.5 to 5 |

Next, values leading:

| IC50 [µM] | SMILES |
| --- | --- |
| 0.5 to 5 | COc1cc(CN(C(=O)C(c2ccc(-c3ccc(F)c(F)c3)cc2F)n2nccc2C)[C@@H]2C=CS(=O)(=O)C2)ccn1 (single isomer, unassigned) [I-749, (2R*)-N-[(3R)-1,1-dioxo-2,3-dihydro-1lambda6-thiophen-3-yl]-N-[(2-methoxypyridin-4-yl)methyl]-2-(5-methyl-1H-pyrazol-1-yl)-2-{3,3′,4′-trifluoro-[1,1′-biphenyl]-4-yl}acetamide] |
| 5 to 10 | COc1cc(CN(C(=O)Cc2ccc([C@@H]3C[C@H]3C(F)(F)F)cc2)[C@@H]2C=CS(=O)(=O)C2)ccn1 (mixture of isomers) [I-784, N-[(3R)-1,1-dioxo-2,3-dihydro-1lambda6-thiophen-3-yl]-N-[(2-methoxypyridin-4-yl)methyl]-2-{4-[(1RS,2RS)-2-(trifluoromethyl)cyclopropyl]phenyl}acetamide] |
| < 0.5 | COc1cc(CN(C(=O)C(C(=O)N(C)C)c2ccc(-c3ccc(F)cc3)cc2)C2C=CS(=O)(=O)C2)ccn1 (stereo not drawn) [I-55, N-(1,1-dioxo-2,3-dihydro-1lambda6-thiophen-3-yl)-2-{4′-fluoro-[1,1′-biphenyl]-4-yl}-N-[(2-methoxypyridin-4-yl)methyl]-N′,N′-dimethylpropanediamide] |
| < 0.5 | COC(C(=O)N(Cc1ccnc(C(C)(C)O)c1)C1C=CS(=O)(=O)C1)c1ccc(S(F)(F)(F)(F)F)cc1 (stereo not drawn) [I-81, N-(1,1-dioxido-2,3-dihydrothiophen-3-yl)-N-((2-(2-hydroxypropan-2-yl)pyridin-4-yl)methyl)-2-methoxy-2-(4-(pentafluoro-λ^6-sulfaneyl)phenyl)acetamide] |
| > 50 | O=C(Cc1cnc(C(F)(F)F)cn1)N(Cc1ccncc1)C1C=CS(=O)(=O)C1 (stereo not drawn) [I-627, N-(1,1-dioxo-2,3-dihydro-1lambda6-thiophen-3-yl)-N-[(pyridin-4-yl)methyl]-2-[5-(trifluoromethyl)pyrazin-2-yl]acetamide] |
| 5 to 10 | COc1cc(CN(C(=O)Cc2ccc(-c3ccc(F)cc3O)nc2)C2C=CS(=O)(=O)C2)ccn1 (stereo not drawn) [I-194, N-(1,1-dioxido-2,3-dihydrothiophen-3-yl)-2-(6-(4-fluoro-2-hydroxyphenyl)pyridin-3-yl)-N-((2-methoxypyridin-4-yl)methyl)acetamide] |
| 5 to 10 | CC(C)(O)c1cc(CN(C(=O)CCc2ccc(S(F)(F)(F)(F)F)cc2)C2C=CS(=O)(=O)C2)ccn1 (single isomer, unassigned) [I-674] |
| 5 to 10 | COc1nc(CN(C(=O)Cc2ccc(S(F)(F)(F)(F)F)cc2)C2C=CS(=O)(=O)C2)cc(N(C)C)n1 (stereo not drawn) [I-634, N-{[6-(dimethylamino)-2-methoxypyrimidin-4-yl]methyl}-N-(1,1-dioxo-2,3-dihydro-1lambda6-thiophen-3-yl)-2-[4-(pentafluoro-lambda6-sulfanyl)phenyl]acetamide] |
| < 0.5 | CC(C)(O)c1cc(CN(C(=O)Cn2cc(-c3cc(F)c(F)c(F)c3)c(F)n2)[C@@H]2C=CS(=O)(=O)C2)ccn1 [I-832, N-[(3R)-1,1-dioxo-2,3-dihydro-1lambda6-thiophen-3-yl]-2-[3-fluoro-4-(3,4,5-trifluorophenyl)-1H-pyrazol-1-yl]-N-{[2-(2-hydroxypropan-2-yl)pyridin-4-yl]methyl}acetamide] |
| > 50 | CCC(C(=O)N(Cc1ccncc1)C1C=CS(=O)(=O)C1)c1ccc(-n2cccc2)cc1 (stereo not drawn) [I-484, N-(1,1-dioxo-2,3-dihydro-1lambda6-thiophen-3-yl)-N-[(pyridin-4-yl)methyl]-2-[4-(1H-pyrrol-1-yl)phenyl]butanamide] |
| < 0.5 | COc1cc(CN(C(=O)C(OCCO)c2ccc(-c3ccc(F)c(F)c3)cc2F)[C@@H]2C=CS(=O)(=O)C2)ccn1 (stereo partly drawn) [I-603, N-[(3R)-1,1-dioxo-2,3-dihydro-1lambda6-thiophen-3-yl]-2-(2-hydroxyethoxy)-N-[(2-methoxypyridin-4-yl)methyl]-2-{3,3′,4′-trifluoro-[1,1′-biphenyl]-4-yl}acetamide] |
| 10 to 50 | O=C(Cc1ccc(S(F)(F)(F)(F)F)cc1)N(Cc1ccncc1)C1C=CS(=O)(=O)C1 (single isomer, unassigned) [I-336] |
| 10 to 50 | COC(C(=O)N(Cc1ccccc1)C1C=CS(=O)(=O)C1)c1ccc(-n2cccc2)cc1 (stereo not drawn) [I-337, N-benzyl-N-(1,1-dioxo-2,3-dihydro-1lambda6-thiophen-3-yl)-2-methoxy-2-[4-(1H-pyrrol-1-yl)phenyl]acetamide] |
| < 0.5 | CC(C(=O)N(Cc1ccnc(C(C)(C)O)c1)C1C=CS(=O)(=O)C1)n1cc(-c2cc(F)c(F)c(F)c2)cn1 (single isomer, unassigned) [I-776, (2R*)-N-[(3R**)-1,1-dioxo-2,3-dihydro-1lambda6-thiophen-3-yl]-N-{[2-(2-hydroxypropan-2-yl)pyridin-4-yl]methyl}-2-[4-(3,4,5-trifluorophenyl)-1H-pyrazol-1-yl]propanamide] |
